Source: PMC3859608, “C-Terminus of the B-Chain of Relaxin-3 Is Important for Receptor Activity” (PLoS ONE, 2013)
No end group written: not given here.

Legend:
RXFP3 [1] = biological target: T1, RXFP3 (Homo sapiens, UniProt Q9NSD7); experiment: Competition binding, Eu-labelled I5/R3, CHO-K1 cells expressing RXFP3; conditions: CHO-K1 cells stably expressing RXFP3; Eu-I5/R3 0.5 nM; one site competition fit; mean ± SEM, n in parentheses in cell (3; H3 amide 4), triplicate determinations; ** p<0.01 vs H3 acid (H3 amide, H3 A-acid); read-out: RXFP3 Eu-H3/I5 pKi (converted)
T1 construct: expressed in transfected cells
T1 sequence (Q9NSD7 1-469): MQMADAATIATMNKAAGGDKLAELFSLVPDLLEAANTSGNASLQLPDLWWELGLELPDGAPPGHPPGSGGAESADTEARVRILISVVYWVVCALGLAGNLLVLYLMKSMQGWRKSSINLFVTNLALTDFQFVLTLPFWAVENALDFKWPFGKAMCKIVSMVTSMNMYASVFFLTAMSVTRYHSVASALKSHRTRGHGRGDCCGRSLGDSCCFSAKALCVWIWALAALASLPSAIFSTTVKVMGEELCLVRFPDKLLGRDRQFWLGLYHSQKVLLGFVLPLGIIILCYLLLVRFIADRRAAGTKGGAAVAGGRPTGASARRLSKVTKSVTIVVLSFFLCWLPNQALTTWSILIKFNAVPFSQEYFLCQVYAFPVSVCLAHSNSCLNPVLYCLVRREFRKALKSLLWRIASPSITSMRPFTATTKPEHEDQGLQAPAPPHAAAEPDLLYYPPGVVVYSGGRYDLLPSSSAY
Experimental: (§1) The receptor binding affinity of the peptides was measured using CHO-K1 cells stably expressing RXFP3 and RXFP4. The competition binding assays were carried out as previously described, [27]. Briefly, a single concentration of Eu-labelled I5/R3 (0.5 nM) or Eu-labelled mouse INSL5 (2.5 nM) were used in presence of increasing concentration of peptides. The data were analyzed using GraphPad PRISM 5 (GraphPad Inc., San Diego, USA). The europium binding curves were fitted to a one site competition curve and the pKi values were expressed as the mean ± SEM of at least three independent experiments with triplicate determinations within each assay.
(§2) Figure 2 Receptor binding affinity (pKi) and cAMP activity (pEC-50) curves of H3 relaxin and its variants at RXFP3. A) Competition binding curves of H3 relaxin variants using a single concentration of Eu-I5/R3 (0.5 nM) in the presence of increasing concentrations of the H3 relaxin peptides. B) RXFP3 activation curves of H3 relaxin variants measured in a cAMP activity assay in the presence of 5 µM forskolin. The data were expressed as mean ± SEM. from at least three independent experiments.

RXFP3 [2] = biological target: T1, RXFP3; experiment: cAMP activity (inhibition of forskolin-induced cAMP), CHO-K1 cells expressing RXFP3; assay type: cell-based; conditions: CHO-K1 RXFP3, pCRE-β-galactosidase reporter; forskolin 1 µM (method) / 5 µM (Fig. 2 legend); peptide 0.01 nM – 1 µM; mean ± SEM, n = 3, triplicate determinations; ** p<0.01 vs H3 acid (H3 amide, H3 A-acid); read-out: RXFP3 cAMP pEC50 (converted)
Experimental: (§3) The ability of the peptides to activate the receptors RXFP3/RXFP4 was assessed by measuring their influence on cAMP signalling in CHO-K1 cells stably expressing RXFP3 or RXFP4 transfected with a pCRE-β-galactosidase reporter gene construct as previously described. A single concentration of forskolin was used to stimulate cAMP signalling in cells expressing RXFP3 (1 µM) and RXFP4 (5 µM) and peptide induced inhibition of cAMP signalling was measured by adding increasing concentrations of the peptides (0.01 nM – 1 µM). The ability of the peptides to inhibit forskolin-induced cAMP response (pEC50) was measured and expressed as mean ± SEM from three independent experiments with triplicate determinations within each assay. The inhibition curves were fitted to a single-site sigmoidal dose-response curve with variable slope using Graphpad PRISM 5.
as §2

RXFP4 [3] = biological target: T2, RXFP4 (Homo sapiens, UniProt Q8TDU9); experiment: Competition binding, Eu-labelled mouse INSL5, CHO-K1 cells expressing RXFP4; conditions: CHO-K1 cells stably expressing RXFP4; Eu-labelled mouse INSL5 2.5 nM; one site competition fit; mean ± SEM, n = 3, triplicate determinations; vs H3 acid: * H3 amide, ** p<0.01 H3 A-acid; read-out: RXFP4 Eu-INSL5 pKi (converted)
T2 construct: expressed in transfected cells
Experimental: as §1
(§4) Figure 3 Receptor binding affinity (pKi) and cAMP activity (pEC-50) curves of H3 relaxin and its variants at RXFP4. A) Competition binding curves of H3 relaxin variants at RXFP4 using a single concentration of Eu-INSL5 (2.5 nM) in the presence of increasing concentrations of the H3 relaxin peptides. B) RXFP4 activation curves of H3 relaxin variants measured in a cAMP activity assays in the presence of 1 µM forskolin. The data were expressed as mean ± SEM from at least three independent experiments.

RXFP4 [4] = biological target: T2, RXFP4; experiment: cAMP activity (inhibition of forskolin-induced cAMP), CHO-K1 cells expressing RXFP4; assay type: cell-based; conditions: CHO-K1 RXFP4, pCRE-β-galactosidase reporter; forskolin 5 µM (method) / 1 µM (Fig. 3 legend); peptide 0.01 nM – 1 µM; mean ± SEM, n = 3, triplicate determinations; vs H3 acid: * H3 amide, ** p<0.01 H3 A-acid; read-out: RXFP4 cAMP pEC50 (converted)
Experimental: as §3, §4

[5] = cited from earlier work; for activity by C-terminal form: C-terminal amide vs acid
Excerpt: The bioactivity of many polypeptide hormones often requires a form of post-translational modification of their precursors. An example of a widespread modification is C-terminal amidation which often leads to an increase in bioactivity of peptides [32]–[35]. In some cases, amidation of the C-terminus has been reported to have detrimental effect on the activity of peptides, [36]. […] In the case of relaxin family peptides, H2 relaxin and INSL3, both p ...

T2 sequence (Q8TDU9 whole entry, species assumed): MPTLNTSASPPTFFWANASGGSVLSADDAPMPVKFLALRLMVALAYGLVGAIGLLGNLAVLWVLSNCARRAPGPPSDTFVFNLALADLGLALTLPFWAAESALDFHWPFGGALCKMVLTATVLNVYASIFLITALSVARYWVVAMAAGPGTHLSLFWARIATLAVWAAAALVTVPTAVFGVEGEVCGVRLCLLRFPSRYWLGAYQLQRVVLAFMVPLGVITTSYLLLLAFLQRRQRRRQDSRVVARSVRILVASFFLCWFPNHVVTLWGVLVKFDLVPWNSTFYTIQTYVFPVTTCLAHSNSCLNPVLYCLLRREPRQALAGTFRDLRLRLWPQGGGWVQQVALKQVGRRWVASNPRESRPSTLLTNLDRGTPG

Q: Which results are given for CC[C@H](C)[C@@H]1NC(=O)[C@H](Cc2ccccc2)NC(=O)[C@H](CCC(=O)O)NC(=O)[C@H](CCCNC(=N)N)NC(=O)CNC(=O)[C@@H](NC(=O)[C@H](CC(C)C)NC(=O)[C@H](CCCNC(=N)N)NC(=O)[C@@H](NC(=O)CNC(=O)[C@H](Cc2ccc(O)cc2)NC(=O)[C@@H]2CCCN2C(=O)[C@H](C)NC(=O)[C@H](C)NC(=O)[C@@H](N)CCCNC(=N)N)C(C)C)CSSC[C@@H]2NC(=O)[C@@H](NC(=O)[C@H](CO)NC(=O)[C@H](CO)NC(=O)[C@H](CO)NC(=O)[C@H](CC(C)C)NC(=O)CNC(=O)[C@H](C)NC(=O)[C@H](CC(C)C)NC(=O)[C@@H](NC(=O)[C@@H](N)CC(=O)O)C(C)C)CSSC[C@H](NC(=O)CNC(=O)[C@H](Cc3c[nH]c4ccccc34)NC(=O)[C@H](CCCCN)NC2=O)C(=O)N[C@@H](CO)C(=O)N[C@@H](CCCCN)C(=O)N[C@@H](CO)C(=O)N[C@@H](CCC(=O)O)C(=O)N[C@@H]([C@@H](C)CC)C(=O)N[C@@H](CO)C(=O)N[C@@H](CO)C(=O)N[C@@H](CC(C)C)C(=O)N[C@H](C(N)=O)CSSC[C@@H](C(=O)NCC(=O)NCC(=O)N[C@@H](CO)C(=O)N[C@@H](CCCNC(=N)N)C(=O)N[C@@H](Cc2c[nH]c3ccccc23)C(N)=O)NC(=O)[C@H]([C@@H](C)O)NC(=O)[C@H](Cc2ccccc2)NC(=O)[C@H]([C@@H](C)CC)NC(=O)[C@H](C(C)C)NC(=O)[C@H](C)NC(=O)[C@H](CCCNC(=N)N)NC1=O [H3 amide]?
A: Ki (RXFP3 [1]): 158 nM; EC50 (RXFP3 [2]): 7.24 nM; Ki (RXFP4 [3]): 39.8 nM; EC50 (RXFP4 [4]): 4.17 nM

Q: What does the source list for CC[C@H](C)[C@@H]1NC(=O)[C@H](Cc2ccccc2)NC(=O)[C@H](CCC(=O)O)NC(=O)[C@H](CCCNC(=N)N)NC(=O)CNC(=O)[C@@H](NC(=O)[C@H](CC(C)C)NC(=O)[C@H](CCCNC(=N)N)NC(=O)[C@@H](NC(=O)CNC(=O)[C@H](Cc2ccc(O)cc2)NC(=O)[C@@H]2CCCN2C(=O)[C@H](C)NC(=O)[C@H](C)NC(=O)[C@@H](N)CCCNC(=N)N)C(C)C)CSSC[C@@H]2NC(=O)[C@@H](NC(=O)[C@H](CO)NC(=O)[C@H](CO)NC(=O)[C@H](CO)NC(=O)[C@H](CC(C)C)NC(=O)CNC(=O)[C@H](C)NC(=O)[C@H](CC(C)C)NC(=O)[C@@H](NC(=O)[C@@H](N)CC(=O)O)C(C)C)CSSC[C@H](NC(=O)CNC(=O)[C@H](Cc3c[nH]c4ccccc34)NC(=O)[C@H](CCCCN)NC2=O)C(=O)N[C@@H](CO)C(=O)N[C@@H](CCCCN)C(=O)N[C@@H](CO)C(=O)N[C@@H](CCC(=O)O)C(=O)N[C@@H]([C@@H](C)CC)C(=O)N[C@@H](CO)C(=O)N[C@@H](CO)C(=O)N[C@@H](CC(C)C)C(=O)N[C@H](C(=O)O)CSSC[C@@H](C(=O)NCC(=O)NCC(=O)N[C@@H](CO)C(=O)N[C@@H](CCCNC(=N)N)C(=O)N[C@@H](Cc2c[nH]c3ccccc23)C(=O)O)NC(=O)[C@H]([C@@H](C)O)NC(=O)[C@H](Cc2ccccc2)NC(=O)[C@H]([C@@H](C)CC)NC(=O)[C@H](C(C)C)NC(=O)[C@H](C)NC(=O)[C@H](CCCNC(=N)N)NC1=O [H3 acid]?
A: Ki (RXFP3 [1]): 18.6 nM; Ki (RXFP4 [3]): 8.71 nM; EC50 (RXFP4 [4]): 1.15 nM

Q: Which results are given for CC[C@H](C)[C@@H]1NC(=O)[C@H](Cc2ccccc2)NC(=O)[C@H](CCC(=O)O)NC(=O)[C@H](CCCNC(=N)N)NC(=O)CNC(=O)[C@@H](NC(=O)[C@H](CC(C)C)NC(=O)[C@H](CCCNC(=N)N)NC(=O)[C@@H](NC(=O)CNC(=O)[C@H](Cc2ccc(O)cc2)NC(=O)[C@@H]2CCCN2C(=O)[C@H](C)NC(=O)[C@H](C)NC(=O)[C@@H](N)CCCNC(=N)N)C(C)C)CSSC[C@@H]2NC(=O)[C@@H](NC(=O)[C@H](CO)NC(=O)[C@H](CO)NC(=O)[C@H](CO)NC(=O)[C@H](CC(C)C)NC(=O)CNC(=O)[C@H](C)NC(=O)[C@H](CC(C)C)NC(=O)[C@@H](NC(=O)[C@@H](N)CC(=O)O)C(C)C)CSSC[C@H](NC(=O)CNC(=O)[C@H](Cc3c[nH]c4ccccc34)NC(=O)[C@H](CCCCN)NC2=O)C(=O)N[C@@H](CO)C(=O)N[C@@H](CCCCN)C(=O)N[C@@H](CO)C(=O)N[C@@H](CCC(=O)O)C(=O)N[C@@H]([C@@H](C)CC)C(=O)N[C@@H](CO)C(=O)N[C@@H](CO)C(=O)N[C@@H](CC(C)C)C(=O)N[C@H](C(N)=O)CSSC[C@@H](C(=O)NCC(=O)NCC(=O)N[C@@H](CO)C(=O)N[C@@H](CCCNC(=N)N)C(=O)N[C@@H](Cc2c[nH]c3ccccc23)C(=O)O)NC(=O)[C@H]([C@@H](C)O)NC(=O)[C@H](Cc2ccccc2)NC(=O)[C@H]([C@@H](C)CC)NC(=O)[C@H](C(C)C)NC(=O)[C@H](C)NC(=O)[C@H](CCCNC(=N)N)NC1=O [H3 B-acid]?
A: Ki (RXFP3 [1]): 24 nM; EC50 (RXFP3 [2]): 0.955 nM; Ki (RXFP4 [3]): 19.1 nM; EC50 (RXFP4 [4]): 1.32 nM

Q: Which “activity by C-terminal form” value [5] does the source give for angiotensin II: polypeptide hormone here?
A: The value was “active as a C-terminal acid form”.

Q: Which “activity by C-terminal form” value [5] does the source give for Oxytocin: polypeptide hormone here?
A: Its value is “only active as a C-terminal amide form”.

B1: INSL3: relaxin family peptide (peptide, UniProt P51460 21-55; P51460 106-131, looked up)
Insulin-like 3 B chain: LGPAPTPEMREKLCGHHFVRALVRVCGGPRWSTEA
Insulin-like 3 A chain: AAATNPARYCCLSGCTQQDLLTLCPY
modifications: not fully specified (bridges); ends and bridges not checked
notes: relaxin family peptide
Q: With B1 as the molecule, how does the “activity of acid vs amide form” value [5] read?
A: Its value is “equally active either in acid or amide form”.
